Converted amounts (≈) assume the structure as drawn.
How the values were obtained:
Experiment in all cases: microbe, parasite or virus in culture
[1] = tested on: P. aeruginosa H103 (wild type); conditions: Pseudomonas aeruginosa
Procedure: (§1) The MICs of test agents were measured using a modified broth micro-dilution method in Difco Mueller Hinton medium, on a panel of bacterial pathogens that were both susceptible and resistant to common antibiotics (S1 File). Briefly, serial dilutions were performed in 0.01% acetic acid containing 0.2% bovine serum albumin at 10-fold the desired final concentration. Ten μL of the 10-fold concentrated test reagents were added to each well of a 96-well polypropylene microtitre plate containing 90 μL of Mueller Hinton media per well. Bacteria were added to the plate from an overnight culture at a final concentration of 2–7 x 10^5 CFU/mL and incubated overnight at 37°C. The MIC is defined as the concentration at which no growth was observed.
(§2) Screening of peptoid antimicrobial activity against a panel of multidrug resistant superbugs was done according to the protocol described in the manuscript. The bacterial strains used in this panel included; P. aeruginosa PAO1 strain H103 [1], P. maltophilia ATCC#13637, S. aureus ATCC#25923 [1], E. faecalis ATCC#29212 [2], and E. cloacae 218R, constitutively expressing Class C chromosomal β-lactamase, were from the Hancock lab strains collection. An MRSA clinical isolate was kindly provided by Anthony Chow (Vancouver General Hospital, Vancouver, Canada). Two Klebsiella pneumoniae and two E. coli clinical isolates expressing extended spectrum β-lactamases (ESBL) were kindly provided by George Zhanel (Health Sciences Centre, Winnipeg, Canada). Vancomycin-resistant clinical isolates of Enterococcus faecalis and E. faecium were obtained from Ana M. Paccagnella (BC Centre for Disease Control, Vancouver, Canada). Three clinical isolates (#9, #198 and #213) of multi-drug resistant P. aeruginosa, were kindly provided by Carlos Kiffer (University of São Paulo, Brazil). […] Three P. aeruginosa clinical isolates of the Liverpool epidemic strain (LES) (H1027, H1030 and LES400) were all kindly provided by Craig Winstanley (University of Liverpool, UK). […] All tested bacterial strains were categorized as biohazard level 2 pathogens.

P. aeruginosa 198 (MDR) = conditions: Pseudomonas aeruginosa
Procedure: as §1, §2

[2] = tested on: P. aeruginosa LES400 (MDR); conditions: Pseudomonas aeruginosa
Procedure: as §1, §2

E. faecium T62764 (VRE) = conditions: Enterococcus faecium, VRE
Procedure: as §1, §2

E. faecium mic80 (VRE) = conditions: Enterococcus faecium, VRE
Procedure: as §1, §2

[3] = tested on: K. pneumonia 61962 (ESBL); conditions: Klebsiella pneumoniae
Procedure: as §1, §2

P. aeruginosa 213 (MDR) = conditions: Pseudomonas aeruginosa
Procedure: as §1, §2

E. faecalis ATCC29212 = conditions: Enterococcus faecalis, ATCC29212
Procedure: as §1, §2

E. faecalis F43559 (VRE) = conditions: Enterococcus faecalis, VRE
Procedure: as §1, §2

P. aeruginosa 9 (MDR) = conditions: Pseudomonas aeruginosa
Procedure: as §1, §2

E. coli 64771 (ESBL) = conditions: Escherichia coli
Procedure: as §1, §2

P. maltophilia ATCC13637 = conditions: Stenotrophomonas maltophilia, ATCC13637
Procedure: as §1, §2

E. faecalis W61950 (VRE) = conditions: Enterococcus faecalis, VRE
Procedure: as §1, §2

E. coli 63103 (ESBL) = conditions: Escherichia coli
Procedure: as §1, §2

S. aureus ATCC25923 = conditions: Staphylococcus aureus, ATCC25923
Procedure: as §1, §2

[4] = tested on: K. pneumonia 63575 (ESBL); conditions: Klebsiella pneumoniae
Procedure: as §1, §2

[5] = tested on: P. aeruginosa H1027 (MDR); conditions: Pseudomonas aeruginosa
Procedure: as §1, §2

[6] = tested on: E. cloacae 218R Class C β-lactamase; conditions: Enterobacter cloacae
Procedure: as §1, §2

S. aureus C623 (MRSA) = conditions: Staphylococcus aureus, MRSA
Procedure: as §1, §2

[7] = tested on: P. aeruginosa H1030 (MDR); conditions: Pseudomonas aeruginosa
Procedure: as §1, §2

| Structure (SMILES) | MIC [1] [µg/mL] | MIC (P. aeruginosa 198 (MDR)) [µg/mL] | MIC [2] [µg/mL] | MIC (E. faecium T62764 (VRE)) [µg/mL] | MIC (E. faecium mic80 (VRE)) [µg/mL] | MIC [3] [µg/mL] | MIC (P. aeruginosa 213 (MDR)) [µg/mL] | MIC (E. faecalis ATCC29212) [µg/mL] | MIC (E. faecalis F43559 (VRE)) [µg/mL] | MIC (P. aeruginosa 9 (MDR)) [µg/mL] | MIC (E. coli 64771 (ESBL)) [µg/mL] | MIC (P. maltophilia ATCC13637) [µg/mL] | MIC (E. faecalis W61950 (VRE)) [µg/mL] | MIC (E. coli 63103 (ESBL)) [µg/mL] | MIC (S. aureus ATCC25923) [µg/mL] | MIC [4] [µg/mL] | MIC [5] [µg/mL] | MIC [6] [µg/mL] | MIC (S. aureus C623 (MRSA)) [µg/mL] | MIC [7] [µg/mL] |
| --- | --- | --- | --- | --- | --- | --- | --- | --- | --- | --- | --- | --- | --- | --- | --- | --- | --- | --- | --- | --- |
| CC(C)(O/N=C(\C(=O)N[C@@H]1C(=O)N2C(C(=O)[O-])=C(C[n+]3ccccc3)CS[C@H]12)c1csc(N)n1)C(=O)O [Ceftazidime, reference compound] | 2 (≈ 3.66 µM) | 128 (≈ 234 µM) | 32 (≈ 58.5 µM) | > 128 | > 128 | > 128 | > 128 | 128 (≈ 234 µM) | > 128 | > 128 | > 128 | 0.3 (≈ 0.549 µM) | > 128 | 128 (≈ 234 µM) | 16 (≈ 29.3 µM) | > 128 | 128 (≈ 234 µM) | 32 (≈ 58.5 µM) | 64 (≈ 117 µM) | – |
| O=C(O)c1cn(C2CC2)c2cc(N3CCNCC3)c(F)cc2c1=O [Ciprofloxacin, reference compound] | 0.1 (≈ 0.302 µM) | 32 (≈ 96.6 µM) | 0.5 (≈ 1.51 µM) | 128 (≈ 386 µM) | 32 (≈ 96.6 µM) | 0.1 (≈ 0.302 µM) | 64 (≈ 193 µM) | 0.3 (≈ 0.905 µM) | 32 (≈ 96.6 µM) | 128 (≈ 386 µM) | > 128 | 0.3 (≈ 0.905 µM) | 32 (≈ 96.6 µM) | > 128 | 0.1 (≈ 0.302 µM) | 64 (≈ 193 µM) | 1 (≈ 3.02 µM) | – | 2 (≈ 6.04 µM) | 0.3 (≈ 0.905 µM) |
| C[C@@H](O)[C@H]1C(=O)N2C(C(=O)O)=C(SCCN=CN)C[C@H]12 [Imipenem, reference compound] | 2 (≈ 6.68 µM) | 32 (≈ 107 µM) | 1 (≈ 3.34 µM) | > 128 | 128 (≈ 428 µM) | 0.1 (≈ 0.334 µM) | 128 (≈ 428 µM) | 0.5 (≈ 1.67 µM) | 2 (≈ 6.68 µM) | 128 (≈ 428 µM) | 0.1 (≈ 0.334 µM) | 128 (≈ 428 µM) | 2 (≈ 6.68 µM) | 0.1 (≈ 0.334 µM) | 0.1 (≈ 0.334 µM) | 0.1 (≈ 0.334 µM) | 8 (≈ 26.7 µM) | 0.1 (≈ 0.334 µM) | 0.1 (≈ 0.334 µM) | – |
| NC[C@H]1O[C@H](O[C@H]2[C@H](O)[C@@H](O[C@H]3O[C@H](CO)[C@@H](O)[C@H](N)[C@H]3O)[C@H](N)C[C@@H]2N)[C@H](N)C[C@@H]1O [Tobramycin, reference compound] | 0.5 (≈ 1.07 µM) | > 128 | 4 (≈ 8.56 µM) | > 128 | 128 (≈ 274 µM) | 32 (≈ 68.4 µM) | > 128 | 16 (≈ 34.2 µM) | 32 (≈ 68.4 µM) | > 128 | 128 (≈ 274 µM) | 4 (≈ 8.56 µM) | > 128 | 64 (≈ 137 µM) | 0.3 (≈ 0.642 µM) | 16 (≈ 34.2 µM) | 32 (≈ 68.4 µM) | 0.5 (≈ 1.07 µM) | > 128 | 8 (≈ 17.1 µM) |
